Where two headings read alike, the source gives them in different places.
Legend:
Type in all cases: in vivo, human
serum IGF-1 = test: Phase 1 study Part 1: PD, serum IGF-1 concentration
Procedure: The serum IGF-1 concentration values remained stable over the sampling time interval post dose. At pre-dose, mean (SD) serum IGF-1 concentration values were 200.9 (50.41) ng/mL for Treatment A, 192.6 (50.55) ng/mL for Treatment B, 192.5 (47.67) ng/mL for Treatment C, and 195.8 (47.16) ng/mL for Treatment D. At 24 h post-dose, the serum concentration values rose to 224.7 (48.70) ng/mL in Treatment A, 224.2 (50.24) ng/mL in Treatment B, 230.4 (60.81) ng/mL in Treatment C, and 223.7 (56.75) ng/mL in Treatment D.

[1] = tested on: serum growth hormone (GH); test: Phase 1 study Part 2: PD, serum GH concentration fasted vs fed; conditions: for serum GH concentration, mean (SD): pre-dose
Text: • Part 1: To evaluate PD (GH response) of the new LUM-201 formulation as capsule (test). • Part 2: To measure PD (GH response) to LUM-201 administered as capsule (test) in fasted versus fed state. PD Results (pt 2): Following the administration of LUM-201, the serum GH concentration values increased post dose. At pre-dose, mean (SD) serum GH concentration values were 0.2121 (0.2192) ng/mL in Treatment A and 0.1088 (0.09518) ng/mL in Treatment B. The serum GH concentration value peaked at 22.18 (22.24) ng/mL in Treatment A at 1 h post-dose and 14.10 (13.48) ng/mL in Treatment B at 1.5 h post-dose. The serum GH concentration values in Treatment A were consistently higher compared to Treatment B over time and approached the peak concentration sooner at 1 h post-dose.

[2] = Phase 1 study Part 2: food effect on plasma PK of LUM-201 capsule; conditions: for % AUCex, Arithmetic Mean / % AUCex, Geometric Mean / Clast, Arithmetic Mean / Clast, Geometric Mean / tlag, Median / tlast, Median / λz, Arithmetic Mean / λz, Geometric Mean / AUC(0-inf) / AUC(0-t) / Cmax / half-life / Tmax: oral; for AUC(0-inf) / AUC(0-t) / Cmax / half-life / Tmax: human, plasma, po, 85.3 mg; for Tmax: read-out: tmax, Median
Text: This was a single center, open-label, randomized, Phase 1 study in healthy adult subjects. This study consisted of 2 parts: Part 1 was a 4-sequence, 4-treatment, 4 Treatment Periods, crossover study to determine the relative bioavailability of current tablets to new capsule formulations of LUM-201; Part 2 was a 2-sequence, 2-treatment, 2 Treatment Periods, crossover study to evaluate the food effect on the bioavailability of the new capsule formulation of LUM-201. An individual subject was allowed to participate in only 1 part (Part 1 or Part 2) of the study. Forty subjects were planned and enrolled in this study. • Part 1: A total of 28 subjects were planned and enrolled in Part 1. Part 1 consisted of 4 sequences, each having 4 Treatment Periods enrolling 7 subjects (1:1:1:1 ratio). During Treatment Periods 1 through 4, each subject received 4 single oral doses of LUM-201 drug product in a randomized, crossover order. • Part 2: A total of 12 subjects were planned and enrolled in Part 2. Part 2 consisted of 2 sequences, each having 2 Treatment Periods enrolling 6 subjects (1:1 ratio). Each subject received a single oral dose of LUM-201 at each Treatment Period. During Treatment Periods 1 and 2, each subject received 2 single oral doses of LUM-201 in a randomized, crossover order. • On Day 1 of Treatment Period 1, subjects were administered the assigned treatment (A or B) as randomized, followed by a washout of at least 3 days between Treatment Periods 1 and 2. Subjects stayed in-house (not discharged) between the Treatment Periods. • Treatment A was dosed at 85.3 mg capsule formulation of LUM-201 (intact capsule consumed unopened) consumed while subject was in a fasted state with 240 mL of water. • Treatment B was dosed at 85.3 mg capsule formulation of LUM-201 (intact capsule consumed unopened) consumed 30 minutes after start of a high-fat meal with 240 mL of water. • Subjects were discharged from the study center on the morning of Day 3 of Treatment Period 2 after the scheduled study assessments had been completed.
Fasted Treatment Period (Treatments A): Each subject received a single dose of LUM-201 in the morning of Day 1 after an overnight fast of at least 10 hours.
Treatment A was dosed at 85.3 mg capsule formulation of LUM-201 (intact capsule consumed unopened) consumed while subject was in a fasted state with 240 mL of water.
Fed Treatment Period (Treatment B): On the morning of Day 1, following an overnight fast of at least 10 hours, a high-fat breakfast (approximately 800 to 1000 calories) was served approximately 30 minutes before the planned dosing time. Subjects were required to eat the entire breakfast in less than 30 minutes.
Treatment B was dosed at 85.3 mg capsule formulation of LUM-201 (intact capsule consumed unopened) consumed 30 minutes after the start of the high-fat breakfast with 240 mL of water according to the FDA Guidance 20225. […]

[3] = Part 2, Treatment A: 85.3 mg capsule, fasted
[4] = 85.3 mg capsule with food vs fasted, statistically significant
[5] = Part 2, Treatment B: 85.3 mg capsule, 30 minutes after start of high-fat meal

food effect on tmax ([2]; 85.3 mg capsule with food vs fasted): no significant effect
increase of AUC0-inf with food [2, 4]: 17.8%
increase of AUC0-last with food [2, 4]: 17.8%
increase of Cmax with food [2, 4]: 64.4%
% AUCex, Arithmetic Mean [2, 3]: 1.868%
% AUCex, Geometric Mean [2, 3]: 1.689%
Clast, Arithmetic Mean [2, 3]: 0.7762 ng/mL
Clast, Geometric Mean [2, 3]: 0.7216 ng/mL
tlag, Median [2, 3]: 0.2489 h
tlast, Median [2, 3]: 48.03 h
λz, Arithmetic Mean [2, 3]: 0.0874 h⁻¹
λz, Geometric Mean [2, 3]: 0.0848 h⁻¹
% AUCex, Arithmetic Mean [2, 5]: 2.081%
% AUCex, Geometric Mean [2, 5]: 1.845%
Clast, Arithmetic Mean [2, 5]: 0.9223 ng/mL
Clast, Geometric Mean [2, 5]: 0.8783 ng/mL
tlag, Median [2, 5]: 0.2906 h
tlast, Median [2, 5]: 48.00 h
λz, Arithmetic Mean [2, 5]: 0.0829 h⁻¹
λz, Geometric Mean [2, 5]: 0.0803 h⁻¹
AUC(0-inf) ([2]; Part 2, Treatment A: 85.3 mg capsule, fasted, read-out: AUC0-inf, Arithmetic Mean): 538 ng·h/mL
AUC(0-inf) ([2]; Part 2, Treatment A: 85.3 mg capsule, fasted, read-out: AUC0-inf, Geometric Mean): 504 ng·h/mL
AUC(0-t) ([2]; Part 2, Treatment A: 85.3 mg capsule, fasted, read-out: AUC0-last, Arithmetic Mean): 528 ng·h/mL
AUC(0-t) ([2]; Part 2, Treatment A: 85.3 mg capsule, fasted, read-out: AUC0-last, Geometric Mean): 494 ng·h/mL
Cmax ([2]; Part 2, Treatment A: 85.3 mg capsule, fasted, read-out: Cmax, Arithmetic Mean): 87.3 ng/mL
Cmax ([2]; Part 2, Treatment A: 85.3 mg capsule, fasted, read-out: Cmax, Geometric Mean): 80.5 ng/mL
half-life ([2]; Part 2, Treatment A: 85.3 mg capsule, fasted, read-out: t1/2, Arithmetic Mean (converted)): 8.39 h
half-life ([2]; Part 2, Treatment A: 85.3 mg capsule, fasted, read-out: t1/2, Geometric Mean (converted)): 8.17 h
Tmax [2, 3]: 1.53 h
AUC(0-inf) ([2]; Part 2, Treatment B: 85.3 mg capsule, 30 minutes after start of high-fat meal, read-out: AUC0-inf, Arithmetic Mean): 626 ng·h/mL
AUC(0-inf) ([2]; Part 2, Treatment B: 85.3 mg capsule, 30 minutes after start of high-fat meal, read-out: AUC0-inf, Geometric Mean): 591 ng·h/mL
AUC(0-t) ([2]; Part 2, Treatment B: 85.3 mg capsule, 30 minutes after start of high-fat meal, read-out: AUC0-last, Arithmetic Mean): 614 ng·h/mL
AUC(0-t) ([2]; Part 2, Treatment B: 85.3 mg capsule, 30 minutes after start of high-fat meal, read-out: AUC0-last, Geometric Mean): 579 ng·h/mL
Cmax ([2]; Part 2, Treatment B: 85.3 mg capsule, 30 minutes after start of high-fat meal, read-out: Cmax, Arithmetic Mean): 151 ng/mL
Cmax ([2]; Part 2, Treatment B: 85.3 mg capsule, 30 minutes after start of high-fat meal, read-out: Cmax, Geometric Mean): 134 ng/mL
half-life ([2]; Part 2, Treatment B: 85.3 mg capsule, 30 minutes after start of high-fat meal, read-out: t1/2, Arithmetic Mean (converted)): 8.87 h
half-life ([2]; Part 2, Treatment B: 85.3 mg capsule, 30 minutes after start of high-fat meal, read-out: t1/2, Geometric Mean (converted)): 8.61 h
Tmax [2, 5]: 1.5 h
SMILES: CC(C)(N)C(=O)N[C@H](COCc1ccccc1)C(=O)N1CCC2(CC1)CN(S(C)(=O)=O)c1ccccc12 [LUM-201, N-[1(R)-[(1,2-dihydro-1-methanesulfonylspiro[3H-indole-3,4′-piperdin]-yl)carbonyl]-2-(phenylmethyloxy)ethyl]-2-amino-2-methylpropanamide methanesulfonate]
serum IGF-1 concentration, mean (SD) (serum IGF-1; 24 h post-dose, Part 1, Treatment A: five 18 mg tablets (90 mg), fasted): 224.7 (48.70) ng/mL
serum IGF-1 concentration, mean (SD) (serum IGF-1; 24 h post-dose, Part 1, Treatment B: 85.3 mg whole capsule, fasted): 224.2 (50.24) ng/mL
serum IGF-1 concentration, mean (SD) (serum IGF-1; 24 h post-dose, Part 1, Treatment C: 85.3 mg capsule contents (dry), fasted): 230.4 (60.81) ng/mL
serum IGF-1 concentration, mean (SD) (serum IGF-1; 24 h post-dose, Part 1, Treatment D: 85.3 mg capsule contents in banana puree): 223.7 (56.75) ng/mL
serum IGF-1 concentration, mean (SD) (serum IGF-1; pre-dose, Part 1, Treatment A: five 18 mg tablets (90 mg), fasted): 200.9 (50.41) ng/mL
serum IGF-1 concentration, mean (SD) (serum IGF-1; pre-dose, Part 1, Treatment B: 85.3 mg whole capsule, fasted): 192.6 (50.55) ng/mL
serum IGF-1 concentration, mean (SD) (serum IGF-1; pre-dose, Part 1, Treatment C: 85.3 mg capsule contents (dry), fasted): 192.5 (47.67) ng/mL
serum IGF-1 concentration, mean (SD) (serum IGF-1; pre-dose, Part 1, Treatment D: 85.3 mg capsule contents in banana puree): 195.8 (47.16) ng/mL
serum GH concentration, peak, mean (SD) ([1]; 1 h post-dose, Part 2, Treatment A: 85.3 mg capsule, fasted): 22.18 (22.24) ng/mL
serum GH concentration, peak, mean (SD) ([1]; 1.5 h post-dose, Part 2, Treatment B: 85.3 mg capsule after high-fat meal): 14.10 (13.48) ng/mL
serum GH concentrations 1.5 hours after administration, fasted vs fed ([1]; Part 2, Treatment A (fasted state) and Treatment B (fed state)): comparable
serum GH concentration, mean (SD) [1, 3]: 0.2121 (0.2192) ng/mL
serum GH concentration, mean (SD) ([1]; Part 2, Treatment B: 85.3 mg capsule after high-fat meal): 0.1088 (0.09518) ng/mL
